Data reported in patent publication US5952189A (priority 1997, dated 1999).
“Also recorded” adds a separate entry of the source. Where two headings read alike, the source gives them in different places. Starred links: 1 amine or outer side, 2 acyl side, 3 side chain; linkers in the order of their positions; H or OH if unused. Positions of bridges follow the written chain, without caps; N, C: chain ends. Non-standard residues stand in square brackets, D forms with d. Residues, ends and D or L forms follow the SMILES beside them. Chains are numbered I, II in the order given. Actinocin(9to1) = Cc1c2oc3c(C)ccc(C(=O)[*:1])c3nc-2c(C(=O)[*:2])c(N)c1=O; NMeV = CN[C@H](C(=O)O)C(C)C; Sar = CNCC(=O)O

Columns and labels:
[1] = test system: U937 cells; experiment: cells; assay type: cell-based, human
[2] = Chymotrypsin-like activity on SAAPP substrate; assay type: biochemical; conditions: eluted from DK120 column
Description: To purify the apoptotic protease, a DK120 affinity column was prepared.
To measure chymotrypsin-like activity, N-succinyl-ala-ala-pro-phe p-nitroanilide (SEQ ID NO: 2) (SAAPP) at 0.1 mM was used as the substrate. Trypsin-like activity was measured using N-α-benzyloxycarbonyl-L-lysine thiobenzyl ester (BLT) at 0.2 mM plus 0.11 mM […].

[3] = Binding to DK120 affinity column; conditions: eluted with 0.1 M HCl
[4] = test system: isolated U937 nuclei; experiment: DNA fragmentation assay using isolated U937 nuclei; assay type: cell-based, human; conditions: concentrations as high as 0.1 mg/ml (FIG. 6A)
Description: U937 cells were labeled with ^3 H-thymidine by culturing overnight with isotope at 0.5 μCi/ml. The cells were pelleted, washed once, and the cytoplasmic membrane lysed by resuspending the cells in assay buffer (50 mM Tris, 250 mM sucrose 10 mM MgSO4, pH 7.5) plus 0.02% NP-40. Nuclei were then pelleted and resuspended in assay buffer at 1×10^6 /ml. The assay was set up in triplicate in flat bottom microtiter plates under sterile conditions. Nuclei (0.05 ml) were mixed with 0.05 ml of sample diluted in 50 mM Tris pH 7.5 or buffer alone to determine total counts. Plates were incubated for 5 h at 37° C. and then harvested by the addition of 0.1 ml of harvesting buffer (10 mM Tris, 10 mM EDTA, 0.3% Triton X-100, pH 7.5). Plates were harvested by filtration onto glass fiber paper and counted on a Packard Matrix 96 beta counter. Percent DNA fragmentation was calculated as follows: […]

[5] = test system: isolated U937 nuclei; experiment: Gel electrophoresis of DNA fragmentation in isolated U937 nuclei; assay type: cell-based, human
[6] = test system: 3T3; experiment: Inhibition of UV-induced DNA fragmentation in 3T3 cells; assay type: cell-based, murine; conditions: inhibitor 100 μM, UV 0.5 J/cm^2, 8 h, no inhibitor 38 ± 1.9
Description: To determine if these findings were unique to U937 or if other cell lines also require protease activity to undergo apoptosis, the effects of several inhibitors on apoptosis induced by UV light in the human mammary carcinoma, BT-20, the murine fibroblast cell line, 3T3, and the human myeloid leukemia, HL-60 were tested. For the BT-20 and 3T3 cells, target cells were pretreated for one hour (with or without inhibitors as indicated in the table) and exposed to UV light at 0.5 J/cm^2 and then incubated for eight hours prior to assessing DNA fragmentation. HL-60 cells were pretreated for one hour (with or without inhibitors as indicated in the table) and exposed to UV at 0.2 J/cm^2 and then incubated for two hours prior to assessing DNA fragmentation.
DNA fragmentation assays were carried out according to the protocol of Wright S. C., et al. (1,992) J. Cell. Biochem. 48, 344-355. Target cells were labeled with ^3 H-thymidine and plated in triplicate in flat bottom microtiter plates. Cells were incubated for the indicated length of time for each experiment in the presence of TNF or various inhibitors. In some experiments, cells were treated with UV light at 245 nm using a UV Crosslinker (Fisher Scientific). Assays were harvested and counted on a Packard matrix 96 beta counter. Percent DNA fragmentation was calculated as for the nuclear assay described in Example 3. In assays to test the effects of various inhibitors, the pH of extra wells containing assay buffer, target cells, and each inhibitor was always checked at the beginning and end of each assay to assure that the pH remained at 7.5.

[7] = test system: BT-20; assay type: cell-based, human; conditions: for % DNA fragmentation: BT-20, inhibitor 100 μM, UV 0.5 J/cm^2, 8 h, no inhibitor 44 ± 3.6; for Effect on UV-induced DNA fragmentation: summary of Table 2 (BT-20, 3T3, HL-60)
[8] = test system: TNF-induced hepatocyte apoptosis; experiment: TNF-induced hepatotoxicity in mice (serum transaminases); assay type: in vivo, Balb/c mice
Description: In this example the concept that a protease inhibitor such as DK120 may attenuate inappropriate apoptosis that causes tissue damage in systemic inflammatory response syndrome (SIRS) was tested. TNF-induced hepatocyte apoptosis in mice was performed as described by Leist et al. ((1995) J. Immunol. 154:1778-1786). Briefly, Balb/c mice were injected ip with […] murine TNF combined with […] Actinomycin D/mouse. Twelve h later, mice were anesthetized and bled from the heart to measure serum transaminase levels, which are standard clinically used indicators of liver damage. Mice that were treated with protease inhibitors were injected ip with these compounds 30 min. prior to TNF. Alanine aminotransferase (ALT) and aspartate aminotransferase (AST) were assayed using a commercially available kit (Sigma). […] However, treatment with DK120 caused a doss-dependent decrease in serum transaminase levels. […] However, a drug that nonspecifically blocks all apoptotic pathways that normally function to maintain homeostasis may not be clinically desirable. Subsequent studies were performed to determine if DK120 could also suppress hepatocyte apoptosis in response to a different stimulus.
^1 Mice (2 for each treatment) were injected ip +/- DK120 30 min prio
to TNF and Actinomycin D. Twelve h later serum transaminase levels were
(§1) To further explore the specificity of DK120 attenuation of TNF-induced hepatotoxicity, several compounds were tested that were found previously not to inhibit apoptotic protease proteolytic activity as measured against a synthetic substrate (data not shown). […] Therefore, the protection mediated by DK120 is not a property of any boron-containing molecule.
^1 Mice (3 for each treatment) were injected ip +/- the inhibitors 30
min prior to TNF and Actinomycin D. Twelve h later serum transaminase

[9] = test system: U937 cells; conditions: cited from earlier work
[10] = test system: apoptotic protease; experiment: Inhibition of apoptotic protease proteolytic activity against a synthetic substrate; assay type: biochemical, human; conditions: data not shown
Description: Proteolytic activity was assayed using synthetic substrates selective for different known proteases. All assays were set up by adding 0.02 ml of sample (or known enzyme as a positive control) plus 0.18 ml of appropriate substrate dissolved in PBS PH 7.5 in triplicate in flat bottom microtiter plates, incubated for the indicated length of time at room temperature, and the OD at 405 nm measured using a plate reader.
Elastase-like activity was measured using N-methoxysuccinyl-ala-ala-pro-valp-nitroanilide (SEQ ID NO: 3) (MAAPV) at 0.25 mM as a substrate. For convenience and maximum sensitivity, these assays were routinely incubated 20 h to monitor protease purification. Under these conditions, the elastase dose response was linear up to a concentration of 6.0 μg/ml (OD of 1.0), see FIG. 3C. […] In order to quantitate the activity of the purified protease, identical assays were set up but kinetic readings of OD were taken every hour from 1-6 h. One unit of enzyme was calculated as the amount of enzyme that hydrolyzes 1.0 nmol substrate/h.
as §1

[11] = test system: LPS-induced hepatotoxicity

COC(=O)[C@H](CCCNC(=N)N)NS(=O)(=O)c1ccc(C)cc1 [TAME, p-toluene-sulfonyl-L-arginine methyl ester]
Effect on DNA fragmentation induced by TNF or UV light ([1]; U937 cells, result in words): without effect

CC(=O)NC(Cc1ccccc1)C(=O)Oc1ccc2ccccc2c1 (racemic) [APNE, N-acetyl-DL-Phenylalanine β-naphthyl ester]
IC50 ([1]; Homo sapiens, U-937, read-out: IC50 (Active Concentration), TNF and UV-light induced apoptosis): 40 µM
Effect on DNA fragmentation induced by TNF or UV light ([1]; U937 cells, result in words): blocked DNA fragmentation

chymotrypsin
Protease activity on SAAPP substrate after elution and neutralization [2]: high levels of protease activity
Binding to DK120 affinity matrix [3]: efficiently bound
DNA fragmentation in isolated nuclei by commercial proteases [4]: completely inactive

α1-anti-protease: α1-anti-protease, protease inhibitor
DNA of nuclei treated with compound alone, gel ([5]; FIG. 5, lane 4): remained in high molecular weight form
Effect on protease-induced DNA fragmentation, gel ([5]; protease pretreated 1 hr (FIG. 5, lane 3)): DNA fragmentation was abolished

CC(=O)N[C@@H](CC(C)C)C(=O)N[C@@H](CC(C)C)C(=O)N[C@H](C=O)CCCNC(=N)N [Leupeptin]
% DNA fragmentation [6]: 36 ± 2.6%
% DNA fragmentation [7]: 42 ± 5.6%
Effect on UV-induced DNA fragmentation [7]: inactive
Effect on DNA fragmentation induced by TNF or UV light ([1]; U937 cells, result in words): without effect

Cc1c2oc3c(C)ccc(C(=O)N[C@@H]4C(=O)N[C@H](C(C)C)C(=O)N5CCC[C@H]5C(=O)N(C)CC(=O)N(C)[C@@H](C(C)C)C(=O)O[C@@H]4C)c3nc-2c(C(=O)N[C@@H]2C(=O)N[C@H](C(C)C)C(=O)N3CCC[C@H]3C(=O)N(C)CC(=O)N(C)[C@@H](C(C)C)C(=O)O[C@@H]2C)c(N)c1=O [Actinomycin D] (I: T[dV]P[Sar][NMeV] / II: T[dV]P[Sar][NMeV]; ester I:1-I:C, II:1-II:C; linker I:N-II:N via Actinocin(9to1))
ALT ([8]; Table 7, Actinomycin D 15 mg alone, 12 h, none 39): 70 U/ml
AST ([8]; Table 7, Actinomycin D 15 mg alone, 12 h, none 51): 47 U/ml
ALT ([8]; Table 10 Exp. #1, Actinomycin D 15 mg alone, 12 h): 71 +/- 8.5 U/ml
ALT ([8]; Table 10 Exp. #2, Actinomycin D 15 mg alone, 12 h): 139 +/- 29 U/ml

CC(C)CC(NC(=O)C1OC1C(=O)O)C(=O)NCCCCN=C(N)N (centres unmarked) [E64]
% DNA fragmentation [6]: 42 ± 2.7%
% DNA fragmentation [7]: 41 ± 5.6%
Effect on UV-induced DNA fragmentation [7]: inactive
Effect on DNA fragmentation induced by TNF or UV light ([1]; U937 cells, result in words): inactive

CC(C)C[C@H](NC(=O)[C@@H](NC(=O)N[C@@H](Cc1ccccc1)C(=O)O)[C@@H]1CCN=C(N)N1)C(=O)N[C@H](C=O)Cc1ccccc1 [Chymostatin]
Effect on DNA fragmentation induced by TNF or UV light ([1]; U937 cells, result in words): without effect

NC(=O)c1cccc(N)c1 [3-aminobenzamide]
Effect on apoptosis [9]: blocked

CCCCCCCCCCCCCC(=O)O[C@@H]1[C@@H](C)[C@@]2(O)[C@@H](C=C(CO)C[C@]3(O)C(=O)C(C)=C[C@@H]23)[C@@H]2C(C)(C)[C@]12OC(C)=O [Phorbol myristate acetate (PMA), Phorbol myristate acetate]
Effect on apoptosis [9]: inhibits apoptosis induced by TNF or UV light

CC(C)C[C@H](NC(=O)[C@@H](O)[C@H](N)Cc1ccccc1)C(=O)O [Bestatin]
Effect on DNA fragmentation induced by TNF or UV light ([1]; U937 cells, result in words): inactive

Aprotinin
Inhibition of apoptotic protease proteolytic activity [10]: do not inhibit apoptotic protease
Protection from TNF-induced hepatotoxicity ([8]; Table 10, 10 mg/kg): neither of these inhibitors had much effect on ALT levels
ALT ([8]; mouse, in vivo): 346 +/- 14 U/ml

Cc1ccc(S(=O)(=O)N[C@@H](CCCCN)C(=O)CCl)cc1 [TLCK, N-α-p-tosyl-L-lysine-chloromethyl ketone]
Effect on DNA fragmentation induced by TNF or UV light ([1]; U937 cells, result in words): without effect

O=S(=O)(F)Cc1ccccc1 [PMSF, phenylmethylsulfonylfluoride]
Effect on DNA fragmentation induced by TNF or UV light [1]: not inhibited; also recorded: without effect
Inactive Compounds, Highest Concentration Tested (highest nontoxic concentration, inactive) [1]: 100 µM

N=C(N)c1ccccc1 [Benzamidine]
Effect on DNA fragmentation induced by TNF or UV light ([1]; U937 cells, result in words): without effect

trypsin
DNA fragmentation in isolated nuclei by commercial proteases [4]: completely inactive

N[C@H]1C(O)O[C@H](CO)[C@H](O)[C@@H]1O (some centres unmarked) [Gln, galactosamine]
ALT ([11]; Gln 15 mg alone, survivors): 137 +/- 33 U/ml
AST ([11]; Gln 15 mg alone, survivors): 67 +/- 4.6 U/ml
% Mortality ([11]; mouse, in vivo): 0%

CCN1C(=O)C=CC1=O [N-ethylmaleimide]
Effect on DNA fragmentation induced by TNF or UV light ([1]; U937 cells, result in words): inactive

B1: leukocyte elastase: human leukocyte elastase obtained from Calbiochem (protein, UniProt P08246 30-267, looked up)
Neutrophil elastase: IVGGRRARPHAWPFMVSLQLRGGHFCGATLIAPNFVMSAAHCVANVNVRAVRVVLGAHNLSRREPTRQVFAVQRIFENGYDPVNLLNDIVILQLNGSATINANVQVAQLPAQGRRLGNGVQCLAMGWGLLGRNRGIASVLQELNVTVVTSLCRRSNVCTLVRGRQAGVCFGDSGSPLVCNGLIHGIASFVRGGCASGLYPDAFAPVAQFVNWIDSIIQRSEDNPCPHPRDPDPASRTH
DNA fragmentation in isolated nuclei by commercial proteases [4]: cannot induce DNA fragmentation in U937 nuclei
DNA fragmentation in isolated nuclei by commercial proteases ([4]; listed as elastase): completely inactive
